Where two headings read alike, the source gives them in different places.
Tested on: Pseudomonas aeruginosa
Test: Serial twofold agar dilution (Mueller-Hinton agar), P. aeruginosa
Assay type: cell-based
Settings: Pseudomonas aeruginosa, Mueller-Hinton agar, read-out: MIC
Method: The Minimum Inhibitory Concentrations (MIC) for sodium 6-[D-(-)-α-phenyl-α-(7-hydroxy-4-oxo-4H-pyrimido[1,2-b]pyridazin-3-ylcarboxamido)acetamido]penicillanate (BB-P598) and sulbenicillin were determined by the serial twofold agar dilution method using Steers' apparatus on Mueller-Hinton agar plates against 31 test organisms for the primary screening (Table 1) and also against 61 strains of Pseudomonas aeruginosa for the secondary evaluation (Table 2).
Minimum Inhibitory Concentrations (MIC) for sodium 6-[D-(-)-α-phenyl-α-(7-hydroxy-4-oxo-4H-pyrimido[1,2-b]pyridazin-3-ylcarboxamido)acetamido]pencillanate (BB-P598), sodium 6-[D-(-)-α-(4-hydroxyphenyl)-α-(7-hydroxy-4-oxo-4H-pyrimido[1,2-b]pyridazin-3-ylcarboxamido)acetamido]-penicillanate (BB-P642) and carbenicillin were determined by the serial twofold agar dilution method using Steers' apparatus on Mueller-Hinton agar plates against 31 tests organisms (Table 8) and also against 61 strains of Pseudomonas aeruginosa (Table 9). In terms of mean % relative activity compared with carbenicillin, compounds BB-B598 and BB-P642 were 856% and 1319% as active as carbenicillin against the 61 Pseudomonas strains of Table 9.

Work on CC1(C)S[C@@H]2[C@H](NC(=O)[C@H](NC(=O)c3cnc4ccc(O)nn4c3=O)c3ccccc3)C(=O)N2[C@H]1C(=O)O [BB-P598, sodium 6-[D-(-)-α-phenyl-α-(7-hydroxy-4-oxo-4H-pyrimido[1,2-b]pyridazin-3-ylcarboxamido)acetamido]penicillanate] yielded an MIC (Pa-15 A20717, Table 2) of 6.3 µg/mL, an MIC (Pa-15 A20717, Table 9) of 12.5 µg/mL and an MIC (Pa-16 #130 A20718, Table 2) of 0.8 µg/mL. The MIC (Pa-16 #130 A20718, Table 9) was 0.4 µg/mL, the MIC (Pa-17 H6, D114, Table 9) was 1.6 µg/mL and the MIC (Pa-17 H6 D114, Table 2) was 3.1 µg/mL. It also gave an MIC (Pa-18 H8, D121, Table 9) of 1.6 µg/mL, an MIC (Pa-18 H8 D121, Table 2) of 3.1 µg/mL and an MIC (Pa-19 A20229, Table 2) of 1.6 µg/mL. For the same compound, the MIC (Pa-19 A20229, Table 9) was 0.8 µg/mL, the MIC (Pa-20 A20325, Table 2) was 6.3 µg/mL and the MIC (Pa-20 A20325, Table 9) was 3.1 µg/mL. For the same compound, the MIC (Pa-21 A20601, Table 2) was 3.1 µg/mL, the MIC (Pa-21 A20601, Table 9) was 3.1 µg/mL and the MIC (Pa-23 A20741, Table 2) was 6.3 µg/mL. The MIC (Pa-23 A20741, Table 9) was 3.1 µg/mL, the MIC (Pa-24 A20896, Table 2) was 25 µg/mL and the MIC (Pa-24 A20896, Table 9) was 100 µg/mL. The MIC (Pa-25 A20897, Table 2) was 1.6 µg/mL, the MIC (Pa-25 A20897, Table 9) was 1.6 µg/mL and the MIC (Pa-26 PS32, Table 9) was 25 µg/mL. For the same compound, the MIC (Pa-26 Ps32, Table 2) was 1.6 µg/mL, the MIC (Pa-28 C.P.H. 10527/72, Table 9) was 3.1 µg/mL and the MIC (Pa-28 CPH10527/72, Table 2) was 6.3 µg/mL. It also gave an MIC (Pa-29 D122, Table 2) of 3.1 µg/mL, an MIC (Pa-29 D122, Table 9) of 3.1 µg/mL and an MIC (Pa-30 A20600, Table 2) of 3.1 µg/mL. The MIC (Pa-30 A20600, Table 9) was 1.6 µg/mL, the MIC (Pa-31 A20594, Table 2) was 0.8 µg/mL and the MIC (Pa-31 A20594, Table 9) was 1.6 µg/mL. The MIC (Pa-32 A20595, Table 2) was 3.1 µg/mL, the MIC (Pa-32 A20595, Table 9) was 3.1 µg/mL and the MIC (Pa-33 A20598, Table 2) was 12.5 µg/mL. The MIC (Pa-33 A20598, Table 9) was 1.6 µg/mL, the MIC (Pa-34 A20603, Table 2) was 3.1 µg/mL and the MIC (Pa-34 A20603, Table 9) was 1.6 µg/mL. The MIC (Pa-35, Table 2) was 12.5 µg/mL, the MIC (Pa-35, Table 9) was 6.3 µg/mL and the MIC (Pa-36, Table 2) was 0.4 µg/mL. For the same compound, the MIC (Pa-36, Table 9) was less than 0.2 µg/mL, the MIC (Pa-37 A20130, Table 2) was 3.1 µg/mL and the MIC (Pa-37 A20130, Table 9) was 3.1 µg/mL. The MIC (Pa-38 A20349, Table 2) was 6.3 µg/mL, the MIC (Pa-38 A20349, Table 9) was 12.5 µg/mL and the MIC (Pa-39 A20641, Table 2) was 3.1 µg/mL. For the same compound, the MIC (Pa-39 A20641, Table 9) was 1.6 µg/mL, the MIC (Pa-41 A21227, Table 2) was 3.1 µg/mL and the MIC (Pa-41 A21227, Table 9) was 3.1 µg/mL. For the same compound, the MIC (Pa-42 A21229, Table 2) was 25 µg/mL, the MIC (Pa-42 A21229, Table 9) was 6.3 µg/mL and the MIC (Pa-43 A21233, Table 2) was 3.1 µg/mL. For the same compound, the MIC (Pa-43 A21233, Table 9) was 3.1 µg/mL, the MIC (Pa-44 A21274, Table 2) was 3.1 µg/mL and the MIC (Pa-44 A21274, Table 9) was 6.3 µg/mL. For the same compound, the MIC (Pa-51 A9910, Table 2) was 3.1 µg/mL, the MIC (Pa-51 A9910, Table 9) was 3.1 µg/mL and the MIC (Pa-52 A9926, Table 2) was 3.1 µg/mL. The MIC (Pa-52 A9926, Table 9) was 3.1 µg/mL, the MIC (Pa-53 A20126, Table 2) was 3.1 µg/mL and the MIC (Pa-53 A20126, Table 9) was 3.1 µg/mL. It also gave an MIC (Pa-54 A20128, Table 2) of 3.1 µg/mL, an MIC (Pa-54 A20128, Table 9) of 3.1 µg/mL and an MIC (Pa-55 A20227, Table 2) of 3.1 µg/mL. For the same compound, the MIC (Pa-55 A20227, Table 9) was 3.1 µg/mL, the MIC (Pa-56 A20228, Table 2) was 3.1 µg/mL and the MIC (Pa-56 A20228, Table 9) was 3.1 µg/mL. It also gave an MIC (Pa-57 A20546, Table 2) of 3.1 µg/mL, an MIC (Pa-57 A20546, Table 9) of 3.1 µg/mL and an MIC (Pa-58 A20557, Table 2) of 6.3 µg/mL. For the same compound, the MIC (Pa-58 A20557, Table 9) was 6.3 µg/mL, the MIC (Pa-59 A20574, Table 2) was 6.3 µg/mL and the MIC (Pa-59 A20574, Table 9) was 1.6 µg/mL. For the same compound, the MIC (Pa-60 A20602, Table 2) was 1.6 µg/mL, the MIC (Pa-60 A20602, Table 9) was 1.6 µg/mL and the MIC (Pa-61 A20726, Table 2) was 6.3 µg/mL. It also gave an MIC (Pa-61 A20726, Table 9) of 3.1 µg/mL, an MIC (Pa-62 A21213, Table 2) of 12.5 µg/mL and an MIC (Pa-62 A21213, Table 9) greater than 100 µg/mL. It also gave an MIC (Pa-64 A21336, Table 2) of 3.1 µg/mL, an MIC (Pa-64 A21336, Table 9) of 1.6 µg/mL and an MIC (Pa-65 A21428, Table 2) of 1.6 µg/mL. For the same compound, the MIC (Pa-65 A21428, Table 9) was 1.6 µg/mL, the MIC (Pa-66 A21434, Table 2) was 3.1 µg/mL and the MIC (Pa-66 A21434, Table 9) was 3.1 µg/mL. For the same compound, the MIC (Pa-67 A21509, Table 2) was 6.3 µg/mL, the MIC (Pa-67 A21509, Table 9) was 6.3 µg/mL and the MIC (Pa-68 A21510, Table 2) was 6.3 µg/mL. It also gave an MIC (Pa-68 A21510, Table 9) of 3.1 µg/mL, an MIC (Pa-69 A21587, Table 2) of 12.5 µg/mL and an MIC (Pa-69 A21587, Table 9) of 6.3 µg/mL. For the same compound, the MIC (Pa-70 K-PS102 (KR-102), Table 9) was 3.1 µg/mL and the MIC (Pa-70 K-Ps102 (CR-102), Table 2) was 3.1 µg/mL.
